{
  "source": "patent US8188312B2",
  "about": "“Acyclic sulfamide derivatives” (Fundacion Imabis. Instituto Mediterraneo para el Avance de …, priority 2006, dated 2012)",
  "key": {"[1]": {"assay": "Food intake study: acute treatment in food-deprived rats", "assay_type": "in vivo, male Wistar rats", "details": "i.p., rats food-deprived 24 h; 30, 60, 120 and 240 min", "protocol": "FIG. 3: Activity of OEA analogs as feeding suppressants. Food intake in food-deprived animals was tested 30, 60, 120 and 240 min after the i.p injection of the different compounds synthesized at different doses. Here we show results for compounds 2 (A), 7 (B), 12 (C), 19 (D) and 20 (E). […] Results are means±SEM of at least three determinations per group. (*) p<0.05, (**) p<0.01, (***) p<0.001, versus vehicle, ANOVA.\nThe effects of the different compounds on feeding behaviour were analyzed in male Wistar rats deprived of food for 24 hours, which were accustomed to its manipulation (Navarro, M et al. 1996 J. Neurochem. 67 (1996):1982. Rodriguez de Fonseca, F. et al. Nature 414 (2001):209. Fu, J et al. Nature, 425 (2003):90). For this aim, 48 hours before every assay rats were set out in single cages, the base material (sand or sawdust) was removed and little food containers were set out into the cage for 4 hours. After this initial phase, animals were deprived of food for 24 hours, always with free access to water. After 24 hours of fast, different treatment groups were established (N=8-10 every group) and different doses of the sulfamide corresponding to each experimental session were administrated i.p. in their vehicle solution in a volume of 1 mL/kg, as well as a control group only treated with the vehicle: • 1) Group treated with a 0.03 mg/kg dose of the sulfamide in vehicle solution. • 2) Group treated with a […] dose of the sulfamide in vehicle. • 3) Group with a 3 mg/kg dose of the corresponding sulfamide in vehicle. • 4) Control group treated with the vehicle tween-80 at 5% in physiological serum.\n15 minutes after the administration, the containers with a known food amount (normally 30-40 g) and a bottle of fresh water were placed. These containers were weighted 30, 60, 120 and 240 minutes after their presentation, so that the food ingested by each animal was controlled."}, "human PPARα": {"target": "T1, human PPARα (Homo sapiens, UniProt Q07869)", "T1 construct": "expressed in transfected cells; host or cells: MCF-7 human breast cancer cells, transiently transfected (DOTAP)", "T1 sequence (Q07869 1-468)": "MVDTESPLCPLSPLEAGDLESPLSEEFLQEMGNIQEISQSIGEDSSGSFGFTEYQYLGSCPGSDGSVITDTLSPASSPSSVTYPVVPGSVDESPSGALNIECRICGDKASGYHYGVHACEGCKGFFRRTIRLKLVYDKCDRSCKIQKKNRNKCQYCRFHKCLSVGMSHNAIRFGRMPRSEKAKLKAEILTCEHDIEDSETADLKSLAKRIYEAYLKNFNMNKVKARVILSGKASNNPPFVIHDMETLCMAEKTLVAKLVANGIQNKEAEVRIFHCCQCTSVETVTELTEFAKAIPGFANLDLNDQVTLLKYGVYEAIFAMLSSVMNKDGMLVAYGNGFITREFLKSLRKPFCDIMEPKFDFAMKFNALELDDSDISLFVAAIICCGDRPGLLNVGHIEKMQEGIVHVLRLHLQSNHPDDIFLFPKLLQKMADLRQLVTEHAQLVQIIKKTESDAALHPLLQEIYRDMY", "assay": "Luciferase reporter gene assay (RGA) in transfected MCF-7 cells", "assay_type": "cell-based", "details": "for induction of luciferase activity with overexpression of TIF2: TIF2 cotransfected, 1 μM; for induction of luciferase activity with overexpression of TIF2 / induction of the basal level of PPARα on the PPRE (relative luciferase activity): MCF-7 cells, 16 h; for induction of the basal level of PPARα on the PPRE (relative luciferase activity): endogenous coregulator levels, 10 μM WY14643, 1 μM OEA and analogs; for activation of PPARα (receptor-mediated transcription): summary statement", "protocol": "FIG. 2: Agonistic action of OEA and analogs. Luciferase reporter gene assays were performed with extracts from MCF-7 cells that were transiently transfected with a luciferase reporter construct containing three copies of the human ACO of PPRE. (A) Wild type human PPARα expression vector was also cotransfected as indicated. Cells were treated for 16 h with solvent (DMSO), and different concentrations (*10^−8, *10^−7, **10^−6 and **10^−5 M) of OEA, compound 2, or *10^−7, **10^−6 and **10^−5 M of anandamide (AEA, used as a negative control), 7 (*10^−8, *10^−7, **10^−6 and **10^−5 M) and 12 (*10^−7, **10^−6 and **10^−5 M). (*p<0.05, (**) p<0.01 vs vehicle, #p<0.01 vs vehicle and without ACO) (B) Wild type human PPARα expression as well as plasmids coding full length TIF2 were also cotransfected as indicated. Cells were treated for 16 h with solvent (DMSO), 10 μM WY14643, 1 μM OEA and its analogs 2, 7 and 12. Relative luciferase activities were measured in reference to solvent-induced cells not overexpressing any protein. Columns represent the mean of at least three experiments and bars indicate SD. (*p<0.01 vs vehicle, #p<0.01 vs vehicle and without TIF2).\nBreast cancer human cells MCF-7 were seeded in a 6-well culture plate (10^5 cells/mL) and cultured in a Dulbecco modified Eagle medium (DMEM) free from phenol red, supplied with 5% of fetal bovine serum (FBS) treated with carbon (Macias-Gonzalez, M et al. Mol. End. 17 (2003): 2028).\nThe liposomes with DNA plasmids were obtained by incubation of 1 μg of the reporter plasmid with luciferase and the wild type human PPAR-α expression vector with 10 μg of N-1-(2,3-dioleyloxi)-propyl-N,N,N-trimethylammonium (DOTAP from Roche Diagnostics) for 15 minutes at room temperature in a total volume of 100 μL. After the dilution with 900 μL of DMEM free from phenol red, the liposomes were added to the cells. 4-5 h after the transfection of the cells, the DMEM free from phenol red supplemented with 500 μL of FBS treated with carbon at 15% was added, in this case with the PPAR-α ligands (OEA, AEA and sulfamides derivatives) or control solvents (DMSO) at different concentrations of 10^−8, 10^−7, 10^−6 and 10^−5 M.\nThe cells were lysed 16 hours after the beginning of the stimulation with the reporter gene lysis buffer (Roche Diagnostics) and the reporter gene assay or RGA luciferase of constant luminous signal was carried out following the manufactures recommendations (Roche Diagnostics). The luciferase activities were standardized with regard to the protein concentration and the induction factors were calculated as the ratio of luciferase activity of ligand stimulated cells in relation to the solvent controls (Vaisanen, S. et al. Mol. Pharmacol. 62 (2002):788)."}, "[2]": {"assay": "Food intake studies: chronic treatment, body weight and plasma triglycerides", "assay_type": "in vivo, male Wistar rats", "protocol": "(§1) FIG. 4: Effects of chronic treatment with 7 (N-octadecyl-N′-propylsulfamide) on body weight gain and plasma triglycerides. […] Results are means±SEM of at least three determinations per group. (*) p<0.05, versus vehicle, ANOVA.\nA chronic treatment with the compounds was carried out using male Wistar rats which were accustomed to its manipulation.\nFor this aim, rats were set out in single cages keeping the base material (sand or sawdust). After an adaptation phase to the conditions of the husbandry where the assay was carried out, three different groups (N=8 every group) were established according to the received treatment: • 1) Group treated with example 6 in its vehicle solution with a 1 mg/kg dose. • 2) Group treated with tween-80 vehicle at 5% in physiological serum. • 3) Control group treated with physiological serum.\nThe total duration of the experiment was eight days, with two i.p. daily administrations (injected volume of 1 mL/kg) of the different solutions with an interval of 12 hours between both injections. Everyday and previously to the administration at 8:00, each animal was weighted. During the total time of the assay, the single weight of each animal and the biochemical parameters in serum were daily controlled."}, "[3]": {"assay": "Subchronic treatment in genetically obese Zucker rats", "assay_type": "in vivo", "details": "11 days, 1 mg/kg i.p. daily", "source_text": "as §1\nTo further explore the anti-obesity properties of this compound, we used an additional animal model of obesity."}, "[4]": {"details": "cited from earlier work"}, "[5]": {"details": "8 days, 1 mg/kg i.p., normal rats, vs vehicle, 1 mg/kg"}},
  "note": "“Also recorded” adds a separate entry of the source.",
  "data": [
    {"compound": "CCCCCCCC/C=C\\CCCCCCCCNS(=O)(=O)NCCC", "values": [
      {"measurement": "melting point", "result": "82 to 83", "unit": "°C"}
    ]},
    {"compound": "CCCCCCCC/C=C\\CCCCCCCCNS(N)(=O)=O", "note": "[Compound 1, N-(cis-9-octadecenyl)sulfamide]", "values": [
      {"measurement": "melting point", "result": "68 to 70", "unit": "°C"}
    ]},
    {"compound": "CCCCCCCCCCCCCCCCCCNS(N)(=O)=O", "note": "[Compound 2, N-octadecylsulfamide]", "values": [
      {"measurement": "food intake / feeding behaviour", "setting": "[1]", "result": "clearly reduced food intake; also recorded: reduces feeding behaviour"},
      {"measurement": "induction of luciferase activity with overexpression of TIF2", "setting": "human PPARα", "result": "did not provide significantly higher induction"},
      {"measurement": "induction of the basal level of PPARα on the PPRE (relative luciferase activity)", "setting": "human PPARα", "result": "did not provide induction"},
      {"measurement": "activation of PPARα (receptor-mediated transcription)", "setting": "human PPARα", "result": "did not activate PPAR receptor-mediated transcription; also recorded: does not activate PPARα"},
      {"measurement": "melting point", "result": "105 to 107", "unit": "°C"}
    ]},
    {"compound": "CCCCCCCCCCCCCCCCNS(N)(=O)=O", "note": "[Compound 3, N-hexadecylsulfamide]", "values": [
      {"measurement": "melting point", "result": "102 to 104", "unit": "°C"}
    ]},
    {"compound": "CCCCCCCCCCCCCCNS(N)(=O)=O", "note": "[Compound 4, N-tetradecylsulfamide]", "values": [
      {"measurement": "melting point", "result": "99 to 101", "unit": "°C"}
    ]},
    {"compound": "CCCCCCCCCCCCCCCCCCNS(=O)(=O)NCCC", "note": "[Compound 7, N-octadecyl-N′-propylsulfamide]", "values": [
      {"measurement": "food intake / feeding behaviour", "setting": "[1]", "result": "potent feeding suppressant"},
      {"measurement": "body weight", "setting": "[2]; [5]", "result": "reduces body weight"},
      {"measurement": "plasma triglycerides", "setting": "[2]; [5]", "result": "marked reduction in plasma triglycerides; also recorded: reduces"},
      {"measurement": "active dose", "setting": "[2]; i.p.", "result": 1, "unit": "mg/kg"},
      {"measurement": "food intake", "setting": "[3]", "result": "reduced"},
      {"measurement": "body weight gain (cumulative relative weight gain)", "setting": "[3]; 1 mg/kg", "result": "reduced body weight gain; also recorded: reduces cumulative relative weight gain"},
      {"measurement": "induction of the basal level of PPARα on the PPRE (relative luciferase activity)", "setting": "human PPARα", "result": "~6", "unit": "times"},
      {"measurement": "activation of PPARα (receptor-mediated transcription)", "setting": "human PPARα", "result": "potent activator of PPARα"},
      {"measurement": "melting point", "result": "110 to 112", "unit": "°C"}
    ]},
    {"compound": "CCCCCCCCCCCCCCCCNS(=O)(=O)NCCC", "note": "[Compound 8, N-hexadecyl-N′-propylsulfamide]", "values": [
      {"measurement": "melting point", "result": "108 to 110", "unit": "°C"}
    ]},
    {"compound": "CCCCCCCCCCCCCCNS(=O)(=O)NCCC", "note": "[Compound 9, N-propyl-N′-tetradecylsulfamide]", "values": [
      {"measurement": "melting point", "result": "105 to 107", "unit": "°C"}
    ]},
    {"compound": "CCCNS(=O)(=O)NC12CC3CC(CC(C3)C1)C2", "note": "[Compound 12, N-propyl-N′-adamantylsulfamide]", "values": [
      {"measurement": "food intake / feeding behaviour", "setting": "[1]", "result": "nor suppress food intake"},
      {"measurement": "induction of luciferase activity with overexpression of TIF2", "setting": "human PPARα", "result": "did not provide significantly higher induction"},
      {"measurement": "induction of the basal level of PPARα on the PPRE (relative luciferase activity)", "setting": "human PPARα", "result": "did not provide induction"},
      {"measurement": "activation of PPARα (receptor-mediated transcription)", "setting": "human PPARα", "result": "neither activates PPARα"}
    ]},
    {"compound": "CCCCCCCC/C=C\\CCCCCCCC(=O)NCCO", "note": "[OEA]", "values": [
      {"measurement": "dose at which hypolipemiant effects are present", "setting": "[4]; described in the literature", "result": "greater than 5 mg/kg"},
      {"measurement": "food intake (literature finding)", "setting": "[4]; through activation of the nuclear receptor PPARα", "result": "decrease food intake"},
      {"measurement": "induction of the basal level of PPARα on the PPRE (relative luciferase activity)", "setting": "human PPARα", "result": "~6", "unit": "times"}
    ]},
    {"compound": "Cc1cccc(Nc2cc(Cl)nc(SCC(=O)O)n2)c1C", "note": "[WY14643, reference compound]", "values": [
      {"measurement": "induction of the basal level of PPARα on the PPRE (relative luciferase activity)", "setting": "human PPARα", "result": "~6", "unit": "times"}
    ]}
  ]
}
